From US7288547B2, “CDK-inhibitory 2-heteroaryl-pyrimidines, their production and use as pharmaceutical agents” (Schering AG, priority 2002, dated 2007)
Where two headings read alike, the source gives them in different places.

Columns and labels:
MCF7 = test: Proliferation Assay (crystal violet); assay type: cell-based, human
Description: Cultivated human tumor cells (as indicated) were flattened out at a density of 5000 cells/measuring point in a 96-well multititer plate in 200 μl of the corresponding growth medium. After 24 hours, the cells of one plate (zero-point plate) were colored with crystal violet (see below), while the medium of the other plates was replaced by fresh culture medium (200 μl), to which the test substances were added in various concentrations (0 μm, as well as in the range of 0.01-30 μm; the final concentration of the solvent dimethyl sulfoxide was 0.5%). The cells were incubated for 4 days in the presence of test substances. The cell proliferation was determined by coloring the cells with crystal violet: the cells were fixed by adding 20 μl/measuring point of a 11% glutaric aldehyde solution for 15 minutes at room temperature. After three washing cycles of the fixed cells with water, the plates were dried at room temperature. The cells were colored by adding 100 μl/measuring point of a 0.1% crystal violet solution (pH was set at 3 by adding acetic acid). After three washing cycles of the colored cells with water, the plates were dried at room temperature. The dye was dissolved by adding 100 μl/measuring point of a 10% acetic acid solution. The extinction was determined by photometry at a wavelength of 595 nm. The change of cell growth, in percent, was calculated by standardization of the measured values to the extinction values of the zero-point plate (=0%) and the extinction of the untreated (0 μm) cells (=100%).

CDK2/CycE = molecular target: T1, CDK2/CycE (Homo sapiens, UniProt P24941); test: CDK2/CycE Kinase Assay; assay type: biochemical
T1 construct: GST; purchased Proquinase Company, Freiburg; host or cells: baculovirus-infected insect cells (Sf9)
Description: Recombinant CDK2- and CycE-GST-fusion proteins, purified from baculovirus-infected insect cells (Sf9), were purchased by the Proquinase Company, Freiburg. Histone IIIS, which was used as a kinase substrate, was purchased by the Sigma Company.
The reaction was stopped by adding EDTA solution (250 mmol, pH 8.0, 14 μl/measuring point).
From each reaction batch, 10 μl was applied to P30 filter strips (Wallac Company), and non-incorporated ^33P-ATP was removed by subjecting the filter strips to three washing cycles for 10 minutes each in 0.5% phosphoric acid. After the filter strips were dried for one hour at 70° C., the filter strips were covered with scintillator strips (MeltiLex™ A, Wallac Company) and baked for one hour at 90° C. The amount of incorporated ^33P (substrate phosphorylation) was determined by scintillation measurement in a gamma-radiation measuring device (Wallac).

[1] = Homo sapiens, MCF7, MCF-7 cells, comparison with known reference compounds, read-out: MCF-7 IC50
[2] = read-out: Inhibition IC50 CDK2/CycE
[3] = Homo sapiens, MCF7, 96 h, MCF7 cells, 4 days incubation, read-out: Proliferation IC50 MCF7

Row | Structure (SMILES) | IC50 (MCF7; [1]) [µM] | IC50 (CDK2/CycE; [2]) [µM] | IC50 (MCF7; [3]) [µM] | IC50 (MCF7; MCF7 cells, 4 days incubation, read-out: Proliferation IC50 MCF7) [µM] | IC50 (CDK2/CycE; comparison with known reference compounds, read-out: CDK2/CycE IC50) [µM]
1 | O=C1Cc2c([nH]c3ccc([N+](=O)[O-])cc23)-c2ccccc2N1 [Alsterpaullone, reference compound] | 1.2 | – | – | – | –
2 | C[C@H](CO)Nc1nc(Nc2ccc(S(N)(=O)=O)nc2)ncc1Br [Example 1.7] | – | 0.006 | – | – | –
3 | CC(C)[C@H](CO)Nc1nc(Nc2cc(S(N)(=O)=O)sc2Cl)ncc1Br [Example 1.8] | – | 0.087 | 3 | – | –
4 | CC(C)[C@H](CO)Nc1nc(Nc2csc(S(N)(=O)=O)c2)ncc1Br [Example 1.9] | – | 0.05 | – | – | –
5 | CC(C)[C@H](CO)Nc1nc(Nc2ccc(S(N)(=O)=O)nc2)ncc1Br [Example 1.11] | – | 0.04 | 1.2 | – | –
6 | CC(O)C(C)Nc1nc(Nc2ccc(S(N)(=O)=O)nc2)ncc1Br (centres unmarked) [Example 1.12] | – | 0.022 | 0.24 | – | –
7 | C[C@@H](O)[C@@H](C)Nc1nc(Nc2ccc(S(N)(=O)=O)nc2)ncc1Br [Example 1.13] | – | 0.008 | – | < 0.1 | –
8 | CC(=O)C(C)Nc1nc(Nc2ccc(S(N)(=O)=O)nc2)ncc1Br (centres unmarked) [Example 1.14] | – | 0.017 | 0.87 | – | –
9 | CC[C@@H](CO)Nc1nc(Nc2ccc(S(N)(=O)=O)nc2)ncc1Br [Example 1.15] | – | 0.013 | 2 | – | –
10 | COC[C@H](C)Nc1nc(Nc2ccc(S(N)(=O)=O)nc2)ncc1Br [Example 1.16] | – | 0.036 | 2 | – | –
11 | CC[C@H](CO)Nc1nc(Nc2ccc(S(N)(=O)=O)nc2)ncc1Br [Example 1.17] | – | 0.007 | 0.5 | – | –
12 | NS(=O)(=O)c1ccc(Nc2ncc(Br)c(NCC3CC3)n2)cn1 [Example 1.19] | – | 0.012 | – | – | –
13 | C[C@H](CO)Nc1nc(Nc2ccc(S(=O)(=O)NCCO)nc2)ncc1Br [Example 1.20] | – | 0.013 | 1.9 | – | –
14 | NS(=O)(=O)c1ccc(Nc2ncc(Br)c(SCCCCO)n2)cn1 [Example 1.21] | – | 0.03 | 5.3 | – | –
15 | CC(CO)N(C)c1nc(Nc2ccc(S(N)(=O)=O)nc2)ncc1Br (centres unmarked) [Example 3.3] | – | 0.036 | 0.62 | – | –
16 | CC(Nc1nc(Nc2ccc(S(N)(=O)=O)nc2)ncc1Br)C(C)(C)O (centres unmarked) [Example 3.4] | – | 0.058 | 0.84 | – | –
17 | C[C@H](O)[C@H](C)Nc1nc(Nc2ccc(S(N)(=O)=O)nc2)ncc1Br [Example 3.5] | – | < 0.01 | 0.88 | – | –
18 | C[C@@H](O)[C@@H](C)Nc1nc(Nc2ccc(S(N)(=O)=O)nc2)ncc1Br [Example 3.6] | – | < 0.01 | 0.1 | – | –
19 | NS(=O)(=O)c1ccc(Nc2ncc(Br)c(NC3CCCCC3)n2)cn1 [Example 3.12] | – | 0.02 | 0.79 | – | –
20 | CC1CCCCC1Nc1nc(Nc2ccc(S(N)(=O)=O)nc2)ncc1Br (centres unmarked) [Example 3.13] | – | 0.016 | 0.3 | – | –
21 | CC(CO)Sc1nc(Nc2ccc(S(N)(=O)=O)nc2)ncc1Br (centres unmarked) [Example 4.1] | – | < 0.01 | 0.61 | – | –
22 | CCC(CO)Sc1nc(Nc2ccc(S(N)(=O)=O)nc2)ncc1Br (centres unmarked) [Example 4.2] | – | < 0.01 | 0.26 | – | –
23 | CC(O)C(C)Sc1nc(Nc2ccc(S(N)(=O)=O)nc2)ncc1Br (centres unmarked) [Example 4.3] | – | 0.034 | 0.23 | – | –
24 | CCC(Sc1nc(Nc2ccc(S(N)(=O)=O)nc2)ncc1Br)C(C)O (centres unmarked) [Example 4.6, 5-[5-bromo-4-(1-ethyl-2-hydroxy-propylsulfanyl)-pyrimidin-2-ylamino]-pyridine-2-sulfonic acid amide] | – | 0.074 | 0.63 | – | –
25 | CC(Nc1nc(Nc2ccc(S(N)(=O)=O)nc2)ncc1Br)C(C)NC1CC1 (centres unmarked) [Example 6.0, 5-[5-bromo-4-(2-cyclopropylamino-1-methyl-propylamino)-pyrimidin-2-ylamino]-pyridine-2-sulfonic acid amide] | – | 0.025 | 2.3 | – | –
26 | O=C1Cc2c([nH]c3ccc(Br)cc23)-c2ccccc2N1 [Kenpaullone, reference compound] | 6 | – | – | – | –
27 | Cn1cnc2c(NCc3ccccc3)nc(NCCO)nc21 [Olomoucine, reference compound] | 30 | – | – | – | –
28 | CC(C)[C@H](CO)Nc1nc(Nc2cccc(Cl)c2)c2ncn(C(C)C)c2n1 [Purvalanol A, reference compound] | 2 | – | – | – | 0.01
